According to patent US8563714B2, “Bridged spiro [2.4] heptane derivatives as ALX receptor and/or FPRL2 agonists” (Actelion Pharmaceuticals Ltd., priority 2009, dated 2013):

Legend:
human FPRL2 = biological target: T1, human FPRL2 (Homo sapiens, UniProt P25089); assay: Intracellular calcium measurements (FLIPR), agonistic activity in HEK293-hFPRL2-Gα16 cells; format: cell-based; settings: Fluo-4 calcium FLIPR, normalized to GLY14-Humanin 100 nM
T1 construct: expressed in transfected cells; host or cells: HEK293 (HEK293-hFPRL2-Gα16)
T1 sequence (P25089 1-353): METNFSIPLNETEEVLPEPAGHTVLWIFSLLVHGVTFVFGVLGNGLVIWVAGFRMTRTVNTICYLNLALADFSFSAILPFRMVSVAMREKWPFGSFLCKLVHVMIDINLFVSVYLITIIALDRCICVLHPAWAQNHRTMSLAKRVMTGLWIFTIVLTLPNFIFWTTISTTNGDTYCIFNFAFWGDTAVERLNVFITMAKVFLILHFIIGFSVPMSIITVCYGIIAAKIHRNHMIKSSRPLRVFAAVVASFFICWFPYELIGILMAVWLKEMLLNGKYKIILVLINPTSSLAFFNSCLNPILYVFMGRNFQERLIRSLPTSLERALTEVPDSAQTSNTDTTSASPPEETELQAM
Procedure: (§1) The ALX receptor and FPRL2 agonistic activities of the compounds of formula (I) are determined in accordance with the following experimental method.
(§2) Intracellular Calcium Measurements:
Cells expressing recombinant human FPRL2 and the G-protein Gα16 (HEK293-hFPRL2-Gα16) were grown to 80% confluency in Growing Medium (GM). […] Stock solutions of test compounds were made up at a concentration of 10 mM in DMSO, and serially diluted in AB to concentrations required for activation dose response curves. Gly14-Humanin (Humanin peptide with replacement of Serine by Glycine at position 14, Phoenix Peptides) was used as a reference agonist. FLIPR384 or FLIPR Tetra instruments (Molecular Devices) were operated according to the manufacturer's standard instructions, adding 4 μl of test compound dissolved at 10 mM in DMSO and diluted prior to the experiment in assay buffer to obtain the desired final concentration. Changes in fluorescence were monitored before and after the addition of test compounds at lex=488 nm and lem=540 nm. Emission peak values above base level after compounds addition were exported after base line subtraction. Values were normalized to high-level control (GLY14-Humanin compound, 100 nM final concentration) after subtraction of the base line value (AB addition).

human ALX receptor = biological target: T2, human ALX receptor (Homo sapiens, UniProt P25090); assay: Intracellular calcium measurements (FLIPR), agonistic activity in HEK293-hALXR-Gα16 cells; format: cell-based; settings: Fluo-4 calcium FLIPR, normalized to WKYMVm 10 nM
T2 construct: expressed in transfected cells; host or cells: HEK293 (HEK293-hALXR-Gα16)
T2 sequence (P25090 1-351): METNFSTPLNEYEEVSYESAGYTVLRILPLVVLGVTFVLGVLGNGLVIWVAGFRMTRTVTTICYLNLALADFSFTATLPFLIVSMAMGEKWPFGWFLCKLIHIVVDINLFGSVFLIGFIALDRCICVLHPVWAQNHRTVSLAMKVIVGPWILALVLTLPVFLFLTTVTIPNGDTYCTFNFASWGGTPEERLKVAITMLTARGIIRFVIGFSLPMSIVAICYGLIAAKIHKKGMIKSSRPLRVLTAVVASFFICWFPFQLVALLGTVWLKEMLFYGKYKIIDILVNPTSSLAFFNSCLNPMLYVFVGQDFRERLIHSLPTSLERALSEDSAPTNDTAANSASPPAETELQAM
Procedure: as §1, §2
Cells expressing recombinant human ALX receptor and the G-protein Gα16 (HEK293-hALXR-Gα16) were grown to 80% confluency in Growing Medium (GM). Cells were detached from culture dishes with a cell dissociation buffer (Invitrogen, 13151-014), and collected by centrifugation at 1,000 rpm at rt for 5 min in Assay Buffer (AB) (equal parts of Hank's BSS (Gibco, 14065-049) and DMEM without Phenol Red (Gibco, 11880-028)). After 60 min incubation at 37° C. under 5% CO2 in AB supplemented with 1 μM Fluo-4 (AM) (Invitrogen, F14202), and 20 mM HEPES (Gibco, 15630-056), the cells were washed and resuspended in AB. They were then seeded onto 384-well FLIPR assay plates (Greiner, 781091) at 50′000 cells in 70 μl per well and sedimented by centrifugation at 1,000 rpm for 1 min. Stock solutions of test compounds were made up at a concentration of 10 mM in DMSO, and serially diluted in AB to concentrations required for activation dose response curves. WKYMVm (Phoenix Peptides) was used as a reference agonist. FLIPR384 or FLIPR Tetra instruments (Molecular Devices) were operated according to the manufacturer's standard instructions, adding 4 μl of test compound dissolved at 10 mM in DMSO and diluted prior to the experiment in assay buffer to obtain the desired final concentration. Changes in fluorescence were monitored before and after the addition of test compounds at lex=488 nm and lem=540 nm. Emission peak values above base level after compounds addition were exported after base line subtraction. Values were normalized to high-level control (WKYMVm compound, 10 nM final concentration) after subtraction of the base line value (AB addition).

Compound | EC50 (human FPRL2) | EC50 (human ALX receptor)
CC(C)(C)OC(=O)N1CCC(NC(=O)C2C(C(=O)Nc3ccc(Br)cc3)C3C=CC2C32CC2)C1 (mixture of isomers) [Example 14, (5R*)—N^5-(4-Bromophenyl)-(6R*)—N^6-(N-tert-butoxycarbonyl-pyrrolidin-3-yl)-(4S*,7R*)-[4,7-ethenylene-spiro[2.4]heptane]-5,6-dicarboxamide] | 1690 nM | 1.2 nM
O=C(NCC1CCCN1)C1C(C(=O)Nc2ccc(Br)cc2)C2C=CC1C21CC1 (mixture of isomers) [Example 18, (5R*)—N^5-(4-Bromophenyl)-(6R*)—N^6-(2-pyrrolidinyl-methyl)-(4S*,7R*)-[4,7-ethenylene-spiro[2.4]heptane]-5,6-dicarboxamide] | 551 nM | 2 nM
CCN1CCCC1CNC(=O)C1C(C(=O)Nc2ccc(Br)cc2)C2C=CC1C21CC1 (mixture of isomers) [Example 54, (5R*)—N^5-(4-Bromophenyl)-(6R*)—N^6-[(1-ethyl-pyrrolidin-2-yl)-methyl]-(4S*,7R*)-[4,7-ethenylene-spiro[2.4]heptane]-5,6-dicarboxamide] | 2590 nM | 16 nM
CC(C)(C)OC(=O)N1CCCC(NC(=O)C2C(C(=O)Nc3ccc(Br)cc3)C3C=CC2C32CC2)C1 (mixture of isomers) [Example 56, (5R*)—N^5-(4-Bromophenyl)-(6R*)—N^6-(N-tert-butoxycarbonyl-piperidin-3-yl)-(4S*,7R*)-[4,7-ethenylene-spiro[2.4]heptane]-5,6-dicarboxamide] | 1750 nM | 18 nM
CC(C)CC(CO)NC(=O)C1C(C(=O)Nc2ccc(Br)cc2)C2C=CC1C21CC1 (mixture of isomers) [Example 59, (5R*)—N^5-(4-Bromophenyl)-(6R*)—N^6-[(2S)-1-hydroxy-4-methyl-pent-2-yl]-(4S*,7R*)-[4,7-ethenylene-spiro[2.4]heptane]-5,6-dicarboxamide] | 8280 nM | 21 nM
CC(NC(=O)C1C(C(=O)Nc2ccc(Br)cc2)C2C=CC1C21CC1)C(N)=O (mixture of isomers) [Example 65, (5R*)—N^5-(4-Bromophenyl)-(6R*)—N^6-[(1S)-1-carbamoyl-ethyl]-(4S*,7R*)-[4,7-ethenylene-spiro[2.4]heptane]-5,6-dicarboxamide] | > 25000 nM | 26 nM
O=C(NCC(c1ccccc1)N1CCOCC1)C1C(C(=O)Nc2ccc(Br)cc2)C2C=CC1C21CC1 (mixture of isomers) [Example 77, (5R*)—N^5-(4-Bromophenyl)-(6R*)—N^6-(2-phenyl-2-morpholino-ethyl)-(4S*,7R*)-[4,7-ethenylene-spiro[2.4]heptane]-5,6-dicarboxamide] | 2280 nM | 80 nM
CC(C)(C)OC(=O)N1CCCC1CNC(=O)C1C(C(=O)Nc2ccc(Br)cc2)C2C=CC1C21CC1 (mixture of isomers) [Example 79, (5R*)—N^5-(4-Bromophenyl)-(6R*)—N^6—(N-tert-butoxycarbonyl-pyrrolidin-2-yl-methyl)-(4S*,7R*)-[4,7-ethenylene-spiro[2.4]heptane]-5,6-dicarboxamide] | 1300 nM | 96 nM
NC(=O)C1CCCCC1NC(=O)C1C(C(=O)Nc2ccc(Br)cc2)C2C=CC1C21CC1 (mixture of isomers) [Example 81, (5R*)—N^5-(4-Bromophenyl)-(6R*)—N^6-(2-carbamoyl-cyclohexyl)-(4S*,7R*)-[4,7-ethenylene-spiro[2.4]heptane]-5,6-dicarboxamide] | 8730 nM | 100 nM
CC(NC(=O)C1C(C(=O)Nc2ccc(Br)cc2)C2C=CC1C21CC1)C(=O)N1CCCCC1 (mixture of isomers) [Example 82, (5R*)—N^5-(4-Bromophenyl)-(6R*)—N^6-(1-piperidin-1-yl-propan-1-on-2-yl)-(4S*,7R*)-[4,7-ethenylene-spiro[2.4]heptane]-5,6-dicarboxamide] | 6590 nM | 118 nM
NC(=O)C(Cc1ccccc1)NC(=O)C1C(C(=O)Nc2ccc(Br)cc2)C2C=CC1C21CC1 (mixture of isomers) [Example 95, (5R*)—N^5-(4-Bromophenyl)-(6R*)—N^6-[(1S)-1-carbamoyl-2-phenyl-ethyl]-(4S*,7R*)-[4,7-ethenylene-spiro[2.4]heptane]-5,6-dicarboxamide] | 1850 nM | 223 nM

Now from value to compound:

EC50 (human FPRL2) | EC50 (human ALX receptor) | Compound
1510 nM | 0.94 nM | O=C(Nc1ccc(Br)cc1)C1C(C(=O)NC2CCNC2)C2C=CC1C21CC1 (mixture of isomers) [Example 9, (5R*)—N^5-(4-Bromophenyl)-(6R*)—N^6-(pyrrolidin-3-yl)-(4S*,7R*)-[4,7-ethenylene-spiro[2.4]heptane]-5,6-dicarboxamide]
4640 nM | 3.2 nM | O=C(NCC1CCCO1)C1C(C(=O)Nc2ccc(Br)cc2)C2C=CC1C21CC1 (mixture of isomers) [Example 22, (5R*)—N^5-(4-Bromophenyl)-(6R*)—N^6-(2-tetrahydrofuranyl-methyl)-(4S*,7R*)-[4,7-ethenylene-spiro[2.4]heptane]-5,6-dicarboxamide]
365 nM | 3.9 nM | CCN(CC)CCCC(C)NC(=O)C1C(C(=O)Nc2ccc(Br)cc2)C2C=CC1C21CC1 (mixture of isomers) [Example 25, (5R*)—N^5-(4-Bromophenyl)-(6R*)—N^6-(5-(N,N-diethyl-amino)-pent-2-yl)-(4S*,7R*)-[4,7-ethenylene-spiro[2.4]heptane]-5,6-dicarboxamide]
744 nM | 4.2 nM | O=C(Nc1ccc(Br)cc1)C1C(C(=O)NC2CCCNC2)C2C=CC1C21CC1 (mixture of isomers) [Example 26, (5R*)—N^5-(4-Bromophenyl)-(6R*)—N^6-(piperidin-3-yl)-(4S*,7R*)-[4,7-ethenylene-spiro[2.4]heptane]-5,6-dicarboxamide]
> 25000 nM | 4.5 nM | CC(CO)NC(=O)C1C(C(=O)Nc2ccc(Br)cc2)C2C=CC1C21CC1 (mixture of isomers) [Example 28, (5R*)—N^5-(4-Bromophenyl)-(6R*)—N^6-(1-hydroxy-prop-2-yl)-(4S*,7R*)-[4,7-ethenylene-spiro[2.4]heptane]-5,6-dicarboxamide]
4100 nM | 5.8 nM | CN1CCCC1CCNC(=O)C1C(C(=O)Nc2ccc(Br)cc2)C2C=CC1C21CC1 (mixture of isomers) [Example 33, (5R*)—N^5-(4-Bromophenyl)-(6R*)—N^6-(2-(1-methyl-pyrrolidin-2-yl)-ethyl)-(4S*,7R*)-[4,7-ethenylene-spiro[2.4]heptane]-5,6-dicarboxamide]
8510 nM | 9.5 nM | O=C(NCC1COCCO1)C1C(C(=O)Nc2ccc(Br)cc2)C2C=CC1C21CC1 (mixture of isomers) [Example 41, (5R*)—N^5-(4-Bromophenyl)-(6R*)—N^6-([1,4]-dioxan-2-yl-methyl)-(4S*,7R*)-[4,7-ethenylene-spiro[2.4]heptane]-5,6-dicarboxamide]
